Read-outs that look alike come from different tables or passages of the source.
Assays:
[1] = test system: HDAC-dependent transcriptional repression in reporter cell line UAS TK-luc (293T cells); experiment: Transcriptional reporter gene assay (UAS TK luciferase, Gal4-repressor fusion); type: cell-based; settings: for concentration at which induction of luciferase reporter gene expression starts: 24 hours treatment; for fold induction at 8 µM: Homo sapiens, HEK-293T, read-out: fold induction of luciferase reporter gene expression
Method: Depicted is the fold induction of luciferase expression after treatment of cells at the indicated concentrations of Compounds 1, 2 and 3.
Transcriptional reporter gene assay. The transcriptional assay for repressor activity exploits activation and derepression of a Gal4-dependent reporter gene (Hildebrand et al., 2001, J Biol Chem 276, 9889-95; Maurer et al., 2002, Blood 99, 2647-52). This assay is performed with specifically constructed permanent cell lines. 293T cell were stably transfected with a UAS TK luciferase reporter plasmid (Heinzel et al., 1997 Nature 387, pp 43-48) and an expression plasmid for the Gal4 DNA binding domain fused to an HDAC-dependent repressor molecule. While Gal4 fusion proteins repress this activity, HDAC inhibitors induce relief of this repression which can be detected as an increase in reporter gene activity (e.g. by luciferase activity detection assay).
Addition of Compounds 1, 2 and 3 relieve this repression as measured by increased expression and activity of luciferase in lysates of treated cells after 24 hours. Both, Compound 1 and 2 induce luciferase reporter gene expression after stimulation of cells for 24 hours starting at a concentration of 8 μM (2-3 fold) with a maximum induction of more than 20 fold at 200 μM. Compound 3, however, induces expression of reporter gene already at a concentration of 1.6 μM with a maximum induction of almost 40 fold at 40 μM.

[2] = test system: BCL-XL expression in K562 cells; experiment: Protein expression profiling, Western Blot: BCL-XL down-regulation; type: cell-based; settings: 36 hours
From the text: (§1) Protein expression profiling. The expression pattern induced by histone deacetylase inhibitors can be monitored by Western Blot analysis with antibodies against p21 and BCL-XL using whole cell extracts of cells treated with the respective compounds at the indicated concentrations. Modulation of protein expression is exemplified by the induction of expression of the cell cycle inhibitor/tumor suppressor p21 and the suppression of expression of the anti-apoptotic molecule BCL-XL.

[3] = test system: human tumor cell lines of breast, colon, pancreas and prostate origin; experiment: Growth inhibition of tumor cell lines (SRB assay); type: cell-based; settings: various cancer cell lines, 72 hours
Method: Growth inhibition of tumor cell lines. The reduction in cellular biomass was measured by SRB-assay. For this assay cells were seeded in 96 well culture dishes at densities between 3000 and 8000 cells per well. After recovery of 24 hours cells were cultured for 48-72 hours in the absence or presence of the indicated concentrations of compounds. Synergistic reduction in total cellular biomass was assayed through SRB-assay by adding the compounds in the medium at the indicated concentrations and cultivate the cells for further 48 hours.
Cells were fixed with cold Trichloracetat (TCA) producing a final TCA concentration of 10%. After 1 hour of incubation at 4° C. the cells were washed five times with water and air dried. Fixed cells were stained for 30 minutes with 0.4% (wt/vol) Sulforhodamine B (SRB) dissolved in 1% acetic acid and washed four times with 1% acetic acid to remove unbound dye. After air drying bound dye was solubilized with 10 mM unbuffered Tris base (pH 10.5) for 5 minutes. Optical densities (OD) were read on a Molecular Devices Versa Max tunable microplate reader at 520-550 nm. Four test wells for each dose-response were set in parallel with 12 control wells per cell line. Measurement of the cell population density at time 0 (To; the time at which the drug was added) was also made from 12 reference wells of cells fixed with TCA just prior to drug addition to the test plates. Background OD of complete medium with 5% FBS fixed and stained as described above was also determined in 12 separate wells. From the unprocessed OD data from each microtiter plate the background OD measurements (i.e. OD of complete medium plus stain and OD of cells at T0) were subtracted thus giving the reduction of cellular biomass of the cells.

[4] = test system: BV-173 cells; experiment: Measurement of apoptosis, FACS sub-G1 by propidium iodide staining; type: cell-based; settings: with Z-VAD, 24 hours
From the text: Measurement of Apoptosis. FACS analysis of the cell cycle by propidium iodide (PI) staining. The cell cycle can be divided into four different sections: During G0/1-phase cells are in senescence or proliferate, in S-phase cells start replicating their DNA, and during G2- and M-phase cells undergo mitosis. […] Degradation of DNA is a marker for apoptosis. The sub-G1 area indicates the hypodiploid DNA peak corresponding to cells with fragmented DNA undergoing apoptosis Using a dye that intercalates with DNA (such as propidium iodide—PI) the cellular DNA content was determined. Between 5×10^5-1×10^6 cells were seeded out in cell culture dishes and treated for the desired time with the desired amount of test compound. After the incubation cells were harvested, washed in cold PBS, and the cell pellet was resuspended in 1 ml 70% ethanol (−20° C.). These cell pellets may be shelved for several month.
For PI staining 3 ml cold sodium citrate solution (38 mM, pH 7.4) was added, cells were pelleted and stained with 500 μl sodium citrate solution (38 mM, pH 7.4) containing 50 μg/ml PI and 5 μg/ml RNase. After a 30 minute incubation time at 37° C. in darkness, cells were analyzed via FACS analysis. The sub-G1-peak constitutes the amount of apoptotic cells.

[5] = test system: histone H4 acetylation in 293T cells; experiment: Induction of histone H4 hyperacetylation, Western Blot; type: cell-based; settings: 6 hours
From the text: Induction of histone hyperacetylation. These acetylated histones can be detected by Western Blot analysis of whole cell extracts from histone deacetylase inhibitor-treated 293T cells using antibodies specific for the acetylated N-terminal lysine residues of histones H4 (Göttlicher et al., 2001, EMBO J. 20, 6969-78).
Since histone deacetylase inhibitors shift the enzymatic balance between histone acetyl transferases (HAT's) and histone deacetylases (HDAC's) towards HAT's by blocking HDAC's, they induce the accumulation of N-terminally hyperacetylated histones H4. This can be seen in FIG. 2 by the induction of histone hyperacetylation after treatment of 293T cells for 6 hours with Compounds 1, 2 and 3. Hyperacetylation can be seen with Compounds 1 and 2 at a concentration as low as 1.6 μM with a maximum induction at […], whereas compound 3 induces hyperacetylation starting at 320 nM.

[6] = test system: p21 expression in K562 cells; experiment: Protein expression profiling, Western Blot: p21 induction; type: cell-based; settings: 36 hours
From the text: as §1

[7] = test system: HDAC activity in nuclear extracts from HeLa cells; experiment: In vitro HDAC activity in HeLa nuclear extracts (Fluor de Lys); type: biochemical; settings: read-out: concentration giving 50% reduction of HDAC activity
From the text: Relative HDAC activity is shown as percent of activity of untreated nuclear extracts.
(§2) In vitro inhibition of recombinant HDAC's. The determination of histone deacetylase activity in HeLa nuclear extracts or recombinant HDAC proteins from High5 insect cells is based on the specific deacetylation of an artificial substrate (Fluor de Lys, Biomol). The substrate turn over may be detected and quantified by fluorometry. By addition of a potential HDAC inhibitor the hydrolysis of the substrate is constrained resulting in a decreased fluorometric signal. IC50 values may be calculated from dose-response curves.
(§3) The assay is separated in two steps: in the first step the substrate (Fluor de Lys/Biomol KI-104) is hydrolysed by histone deacetylases. In step two HDAC activity is terminated and the fluorophore is activated by the addition of a developer (Developer/Biomol KI-105). Nuclear extracts from HeLa cells (Biomol KI-140) or recombinant proteins and the potential HDAC inhibitor are mixed with reaction buffer (Biomol KI143) to a total volume of 25 μl per well of a 96 well plate. 25 μl substrate (1:100 dilution in reaction buffer) per well are added to start the reaction. A negative control without histone deacetylase activity and a positive control without HDAC inhibitor are treated likewise. The reaction is stopped after 15-60 min. by adding 50 μl developer (1:20 dilution in reaction buffer). After another 15 min. incubation time at room temperature the fluorescence signal is stable for 60 min and may be detected by a fluorescence reader (excitation filter: 390 nm, emission filter: 460 nm).

[8] = target: T1, recombinant HDAC6 (Homo sapiens, UniProt Q9UBN7); experiment: In vitro inhibition of recombinant HDAC6 (Fluor de Lys); type: biochemical; settings: read-out: concentration giving 50% reduction of HDAC activity
T1 construct: made in house; host or cells: High5 insect cells
T1 sequence (Q9UBN7 1-1215): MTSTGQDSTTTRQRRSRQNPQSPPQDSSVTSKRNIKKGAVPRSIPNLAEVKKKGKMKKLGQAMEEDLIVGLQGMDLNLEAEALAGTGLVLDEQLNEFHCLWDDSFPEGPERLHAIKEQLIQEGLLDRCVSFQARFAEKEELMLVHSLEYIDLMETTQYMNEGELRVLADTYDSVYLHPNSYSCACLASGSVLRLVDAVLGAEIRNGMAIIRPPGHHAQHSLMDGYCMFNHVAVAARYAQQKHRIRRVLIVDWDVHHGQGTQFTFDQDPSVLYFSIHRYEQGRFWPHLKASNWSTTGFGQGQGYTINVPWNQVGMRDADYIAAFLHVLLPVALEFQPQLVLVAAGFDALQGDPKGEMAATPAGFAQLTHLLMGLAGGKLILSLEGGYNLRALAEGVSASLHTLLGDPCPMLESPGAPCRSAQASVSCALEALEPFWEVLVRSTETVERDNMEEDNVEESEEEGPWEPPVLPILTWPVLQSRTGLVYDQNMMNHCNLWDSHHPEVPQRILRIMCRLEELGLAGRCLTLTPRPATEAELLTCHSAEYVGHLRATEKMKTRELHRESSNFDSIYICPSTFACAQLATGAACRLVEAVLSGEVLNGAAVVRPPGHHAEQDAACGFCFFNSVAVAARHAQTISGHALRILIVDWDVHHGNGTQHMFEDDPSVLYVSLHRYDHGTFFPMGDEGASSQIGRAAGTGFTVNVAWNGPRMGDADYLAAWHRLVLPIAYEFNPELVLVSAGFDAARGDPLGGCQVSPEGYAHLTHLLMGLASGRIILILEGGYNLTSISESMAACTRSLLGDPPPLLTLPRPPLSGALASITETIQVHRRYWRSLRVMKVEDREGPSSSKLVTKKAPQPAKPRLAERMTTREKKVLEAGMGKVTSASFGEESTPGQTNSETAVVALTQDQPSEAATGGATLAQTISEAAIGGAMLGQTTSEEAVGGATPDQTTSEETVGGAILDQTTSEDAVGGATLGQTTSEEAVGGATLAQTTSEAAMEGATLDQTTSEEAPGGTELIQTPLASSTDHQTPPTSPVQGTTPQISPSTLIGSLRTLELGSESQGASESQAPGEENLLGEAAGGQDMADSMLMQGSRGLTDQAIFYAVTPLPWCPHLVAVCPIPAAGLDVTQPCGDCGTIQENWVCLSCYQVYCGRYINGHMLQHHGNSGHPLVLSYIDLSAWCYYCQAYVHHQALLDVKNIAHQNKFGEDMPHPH
From the text: (§4) Relative HDAC activity is shown as percent of activity of untreated HDAC enzymes.
as §2
as §3, with “A negative control without histone deacetylase activity and a positive control without HDAC inhibitor are treated likewise. The reaction is stopped after 15-60 min. by adding 50 μl developer (1:20 dilution in reaction buffer).” left out

[9] = target: T2, recombinant HDAC8 (Homo sapiens, UniProt Q9BY41); experiment: In vitro inhibition of recombinant HDAC8 (Fluor de Lys); type: biochemical; settings: read-out: concentration giving 50% reduction of HDAC activity
T2 construct: made in house; host or cells: High5 insect cells
T2 sequence (Q9BY41 1-377): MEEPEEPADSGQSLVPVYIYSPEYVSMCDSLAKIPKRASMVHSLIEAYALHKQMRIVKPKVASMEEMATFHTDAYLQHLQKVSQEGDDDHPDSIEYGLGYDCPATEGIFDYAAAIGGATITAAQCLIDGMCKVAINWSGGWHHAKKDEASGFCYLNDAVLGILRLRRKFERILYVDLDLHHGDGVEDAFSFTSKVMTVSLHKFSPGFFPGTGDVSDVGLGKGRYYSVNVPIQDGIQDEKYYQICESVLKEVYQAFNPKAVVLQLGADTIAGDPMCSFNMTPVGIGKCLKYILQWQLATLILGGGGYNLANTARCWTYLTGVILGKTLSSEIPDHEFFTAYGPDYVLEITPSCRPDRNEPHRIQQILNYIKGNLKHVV
From the text: as §4, §2
as §3, with “A negative control without histone deacetylase activity and a positive control without HDAC inhibitor are treated likewise. The reaction is stopped after 15-60 min. by adding 50 μl developer (1:20 dilution in reaction buffer).” left out

[10] = target: T3, recombinant HDAC1 (Homo sapiens, UniProt Q13547); experiment: In vitro inhibition of recombinant HDAC1 (Fluor de Lys); type: biochemical; settings: read-out: concentration giving 50% reduction of HDAC activity
T3 construct: made in house; host or cells: High5 insect cells
From the text: as §4, §2
as §3, with “A negative control without histone deacetylase activity and a positive control without HDAC inhibitor are treated likewise. The reaction is stopped after 15-60 min. by adding 50 μl developer (1:20 dilution in reaction buffer).” left out

[11] = read-out: concentration inducing 50% growth arrest (IC50), mean over cell lines
[12] = read-out: concentrations inducing 50% growth arrest (IC50), range over cell lines

T3 sequence (Q13547 whole entry, species assumed): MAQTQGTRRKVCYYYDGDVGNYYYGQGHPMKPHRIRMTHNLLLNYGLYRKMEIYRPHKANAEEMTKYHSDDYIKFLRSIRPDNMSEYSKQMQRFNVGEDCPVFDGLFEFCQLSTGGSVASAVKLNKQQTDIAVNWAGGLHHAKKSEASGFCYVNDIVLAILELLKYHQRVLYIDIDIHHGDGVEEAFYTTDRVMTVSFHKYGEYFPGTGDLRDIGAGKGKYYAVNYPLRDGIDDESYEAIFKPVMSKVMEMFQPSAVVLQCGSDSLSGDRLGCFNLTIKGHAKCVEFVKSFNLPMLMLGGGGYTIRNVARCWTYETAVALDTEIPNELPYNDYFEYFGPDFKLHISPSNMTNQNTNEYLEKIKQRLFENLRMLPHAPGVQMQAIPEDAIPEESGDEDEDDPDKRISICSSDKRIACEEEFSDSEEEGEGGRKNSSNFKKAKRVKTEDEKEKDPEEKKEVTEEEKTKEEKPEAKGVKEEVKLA

IC50 [3, 11]	IC50 [3, 12]	IC50 [7]	IC50 [8]	IC50 [9]	IC50 [10]	Compound	concentration at which induction of luciferase reporter gene expression starts [1]	fold induction at 8 µM ([1]; 24 hours)	concentration inducing BCL-XL downregulation [2]	apoptotic process in the presence of pan-caspase inhibitor Z-VAD [4]	concentration of maximum induction of histone H4 hyperacetylation [5]	lowest concentration at which histone H4 hyperacetylation is seen [5]	concentration inducing p21 expression [6]	maximum induction of luciferase reporter gene expression ([1]; at 40 μM, 24 hours)	concentration at which histone H4 hyperacetylation starts [5]
33 µM	8 to 70 µM	14.7 µM	–	–	–	O=C(CCC1CCCC1)NO [Compound 1, 3-Cyclopentyl-N-hydroxy-propionamide]	8 µM	2 to 3	200 µM	completely blocked	40 µM	1.6 µM	40 µM	–	–
15 µM	5 to 26 µM	6.1 µM	–	–	–	O=C(CCC1CCCCC1)NO [Compound 2, 3-Cyclohexyl-N-hydroxy-propionamide]	8 µM	2 to 3	8 µM	completely blocked	40 µM	1.6 µM	8 µM	–	–
2.6 µM	0.5 to 8 µM	0.9 µM	0.3 to 0.4 µM	0.3 to 0.4 µM	0.3 to 0.4 µM	O=C(C=CC1CCCCC1)NO [Compound 3, 3-Cyclohexyl-N-hydroxy-acrylamide]	1.6 µM	–	8 µM	completely blocked	–	–	8 µM	~40 fold	320 nM
